Columns and labels:
NCNga mice = conditions: picrylchloride-induced dermatitis; cited from earlier work
[1] = In vitro skin permeation, Franz diffusion cell; format: in vitro ADME; conditions: topical formulations B and C, LC-MS/MS, human skin, 37° C.
Experimental: In vitro skin permeation of serlopitant in topical formulations A-D was evaluated using a Franz diffusion cell. FIG. 2 illustrates a Franz diffusion cell. A Franz diffusion cell having a circular permeation area of 4.15 cm^2 and a receptor chamber volume of 19 mL was set up with a thermo-regulated outer water jacket to maintain the temperature at 37° C. The receptor chamber was filled with 19 mL 1×PBS (pH 7.5) containing 10% ethanol and 1% Tween® 80.
Human skin was pretreated to remove all subcutaneous fat and was cleaned with 70% ethanol before use. The skin was visually inspected to ensure that it was free of any surface irregularity or small holes and was equally divided into four pieces. The skin was then mounted onto the receptor chamber with the stratum corneum side facing up. About 100 mg of topical formulation A, B, C or D was applied to the skin (actual weight: A, 103.8 mg; B, 101.3 mg; C, 103.2 mg; and D, 103.8 mg), which was then covered with parafilm to avoid evaporation. […]
All samples were processed by solid-phase extraction (SPE) before LC-MS/MS analysis. […] Serlopitant concentrations in samples resulting from formulations A-D were determined by comparison to the standard. Serlopitant was not detected in samples resulting from topical formulations A and D, as expected. […] After an initial lag, serlopitant was detected by LC-MS/MS in the receptor chamber at 6 hours.

CYP-3A4 mRNA = conditions: three individual preparations of human hepatocytes; cited from earlier work
[2] = test system: cloned human NK-2 and NK-3 receptors; conditions: CHO cells stably expressing the respective receptors; cited from earlier work
patients with OAB = conditions: cited from earlier work
[3] = Solubility test in Franz cell receptor solution; format: physicochemical
human NK-1 receptor = human NK-1 receptor (Homo sapiens, UniProt P25103); conditions: cited from earlier work
[4] = Solubility of Compound 1 in solvents; format: physicochemical
From the text: S-BTBA ((S)-1-[3,5-bis(trifluoromethyl)] phenylethanol)) (12) is reacted with trichloroacetonitrile (Sigma-Aldrich) in the presence of base 1,8-diazabicycloundec-7-ene (DBU) to produce imidate (13). HBF4 is used to catalyze the reaction of (11) with (13) to yield ether (14). Treatment with allylamine and bis-propylsulfonate cyclizes (14) to allylamine-protected pyrrolidine (15). Removal of the allyl protecting group with thiosalicylic acid and 1,4-bis(diphenylphosphino)butane (dppb), followed by […] (Pd2(dba)3) and isolation with acetic acid gives crystalline (16). Finally, (16) is reacted with 1,3-cyclopentanedione (Sigma-Aldrich) in isopropyl alcohol to give Compound 1. Compound 1 is a white to off-white powder.

[5] = test system: patients with chronic pruritus; set-up: patients with considerable reduction in itch intensity: unit not given here; conditions: 80 mg daily for 3 to 13 days, cited from earlier work
CYP2C9 = CYP2C9 (Homo sapiens, UniProt P11712); conditions: cited from earlier work
CYP3A4 = CYP3A4 (Homo sapiens, UniProt P08684); conditions: cited from earlier work
[6] = test system: patients suffering from chronic pruritus; conditions: single topical dose, 5% in a lipophilic vehicle; cited from earlier work
[7] = test system: patients with Sézary syndrome; conditions: oral, 80 mg daily, three patients with Sézary syndrome; cited from earlier work
[8] = itch; cited from earlier work
[9] = test system: patients with liver and kidney disease; conditions: cited from earlier work

Sequence of human NK-1 receptor (P25103 whole entry): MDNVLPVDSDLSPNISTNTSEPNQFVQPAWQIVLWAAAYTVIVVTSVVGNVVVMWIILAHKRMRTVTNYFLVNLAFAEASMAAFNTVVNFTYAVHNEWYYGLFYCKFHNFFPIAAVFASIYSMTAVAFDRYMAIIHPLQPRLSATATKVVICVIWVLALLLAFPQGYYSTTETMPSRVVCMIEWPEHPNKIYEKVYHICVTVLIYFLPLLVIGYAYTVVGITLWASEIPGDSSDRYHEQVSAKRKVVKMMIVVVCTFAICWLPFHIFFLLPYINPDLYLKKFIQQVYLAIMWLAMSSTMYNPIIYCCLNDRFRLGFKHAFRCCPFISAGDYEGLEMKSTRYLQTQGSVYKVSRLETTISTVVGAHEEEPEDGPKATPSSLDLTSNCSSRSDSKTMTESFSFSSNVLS
Sequence of CYP2C9 (P11712 whole entry): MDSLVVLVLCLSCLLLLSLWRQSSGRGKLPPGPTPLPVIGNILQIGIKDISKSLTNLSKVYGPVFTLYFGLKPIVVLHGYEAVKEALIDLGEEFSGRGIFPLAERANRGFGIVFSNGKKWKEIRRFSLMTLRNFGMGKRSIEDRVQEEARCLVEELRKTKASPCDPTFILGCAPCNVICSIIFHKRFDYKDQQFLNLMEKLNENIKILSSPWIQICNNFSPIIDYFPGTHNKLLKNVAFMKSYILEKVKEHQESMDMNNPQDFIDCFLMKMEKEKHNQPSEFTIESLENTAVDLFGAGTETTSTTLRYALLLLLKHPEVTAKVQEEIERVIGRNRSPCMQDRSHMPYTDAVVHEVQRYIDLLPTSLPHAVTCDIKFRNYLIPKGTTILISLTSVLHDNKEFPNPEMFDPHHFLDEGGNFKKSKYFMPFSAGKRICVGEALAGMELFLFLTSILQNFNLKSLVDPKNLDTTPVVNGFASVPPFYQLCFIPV
Sequence of CYP3A4 (P08684 whole entry): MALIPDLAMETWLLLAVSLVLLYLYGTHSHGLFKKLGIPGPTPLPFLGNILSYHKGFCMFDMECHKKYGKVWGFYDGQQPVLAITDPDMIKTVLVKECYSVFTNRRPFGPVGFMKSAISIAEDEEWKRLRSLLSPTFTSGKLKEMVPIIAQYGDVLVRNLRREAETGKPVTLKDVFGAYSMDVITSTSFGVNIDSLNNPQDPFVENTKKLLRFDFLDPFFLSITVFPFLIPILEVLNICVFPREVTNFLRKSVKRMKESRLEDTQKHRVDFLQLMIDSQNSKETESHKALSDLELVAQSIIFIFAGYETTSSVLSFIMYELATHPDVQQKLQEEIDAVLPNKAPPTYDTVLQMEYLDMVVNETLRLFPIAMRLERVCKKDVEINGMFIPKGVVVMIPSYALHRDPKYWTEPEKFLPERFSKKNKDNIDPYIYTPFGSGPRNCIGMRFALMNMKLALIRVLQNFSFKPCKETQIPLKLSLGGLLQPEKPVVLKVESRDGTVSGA

Structure (SMILES): CN(CCc1cc(C(F)(F)F)cc(C(F)(F)F)c1)C(=O)[C@H](c1ccccc1)N1CCN(CC2CC2)CC1 [BIIF 1149 CL]
- scratching behavior (NCNga mice): inhibited scratching behavior

Structure (SMILES): C[C@@H](O[C@H]1CC[C@@H]2CN(C3=CC(=O)CC3)C[C@H]2[C@@H]1c1ccc(F)cc1)c1cc(C(F)(F)F)cc(C(F)(F)F)c1 [Compound 1, 3-[(3aR,4R,5S,7aS)-5-[(1R)-1-[3,5-bis(trifluoromethyl)phenyl]ethoxy]-4-(4-fluorophenyl)-1,3,3a,4,5,6,7,7a-octahydroisoindol-2-yl]cyclopent-2-en-1-one]
- time at which serlopitant was detected in the receptor chamber after initial lag [1]: 6 h
- induction of CYP-3A4 mRNA (CYP-3A4 mRNA): did not significantly induce
- selectivity for NK-1 over NK-2 and NK-3 receptors [2]: > 39,000 fold
- number of daily micturitions compared with placebo (patients with OAB; 0.25 and 4 mg daily): significantly reduced
- adverse experience of dry mouth (patients with OAB): not associated
- dose response relationship with micturition frequency (patients with OAB): did not show a dose response relationship
- drug-related serious adverse experiences (patients with OAB): no drug-related serious adverse experiences
- secondary efficacy end points: urinary urgency, urge incontinence and total incontinence (patients with OAB): did not significantly influence
- tolerability (patients with OAB): generally well tolerated
- solubility in receptor solution ([3]; 0.5, 5 and 50 ug/mL in 1xPBS (pH 7.5) with 10% ethanol and 1% Tween 80, 1 hour at 37° C.): remained soluble
- solubility change if Tween 80 was not used ([3]; 1xPBS (pH 7.5), 37° C.): decreased significantly
- solubility change if ethanol was not used ([3]; 1xPBS (pH 7.5), 37° C.): decreased slightly
- IC50 (human NK-1 receptor; read-out: IC50, displacement of substance P binding): 0.061 nM
- Kd (human NK-1 receptor; read-out: Kd, binding to the human NK-1 receptor): 0.046 nM
- solubility ([4]; acetonitrile): sparingly soluble
- solubility ([4]; ethanol): soluble
- solubility ([4]; ethyl acetate): sparingly soluble
- solubility ([4]; isopropyl acetate): slightly soluble
- solubility ([4]; isopropyl alcohol): sparingly soluble
- solubility ([4]; methanol): freely soluble
- solubility ([4]; water): insoluble

Structure (SMILES): C[C@@H](O[C@H]1OCCN(Cc2n[nH]c(=O)[nH]2)[C@H]1c1ccc(F)cc1)c1cc(C(F)(F)F)cc(C(F)(F)F)c1 [aprepitant]
- effect on chronic pruritus ([5]; atopic diathesis, prurigo nodularis): significantly decreased chronic pruritus
- patients with considerable reduction in itch intensity ([5]; twenty patients): Eighty
- inhibition and induction of CYP2C9 (CYP2C9): moderate inhibitor as well as an inducer
- inhibition and induction of CYP3A4 (CYP3A4): moderate inhibitor as well as an inducer
- absorption into the skin [6]: absorbed into the skin
- effect on patients' itch [6]: not alleviated
- treatment of pruritus [7]: had utility in treating pruritus

Structure (SMILES): NCC1(CC(=O)O)CCCCC1 [gabapentin]
- onset of action [8]: 5-6 weeks

Structure (SMILES): C=C1CC[C@@]2(O)[C@H]3Cc4ccc(O)c5c4[C@@]2(CCN3CC2CC2)[C@H]1O5 [nalmefene]
- effect on pruritus symptoms [9]: decreased pruritus symptoms
- side effects [9]: significant central nervous and gastrointestinal side effects occurred

Structure (SMILES): C=CCN1CC[C@]23c4c5ccc(O)c4O[C@H]2C(=O)CC[C@@]3(O)[C@H]1C5 [naloxone]
- effect on pruritus symptoms [9]: decreased pruritus symptoms
- side effects [9]: significant central nervous and gastrointestinal side effects occurred

Structure (SMILES): O=C1CC[C@@]2(O)[C@H]3Cc4ccc(O)c5c4[C@@]2(CCN3CC2CC2)[C@H]1O5 [naltrexone]
- effect on pruritus symptoms [9]: decreased pruritus symptoms
- side effects [9]: significant central nervous and gastrointestinal side effects occurred

Structure (SMILES): Cc1ccc(O)c([C@H](CCN(C(C)C)C(C)C)c2ccccc2)c1 [tolterodine, reference compound]
- adverse experience of dry mouth (patients with OAB): common
- efficacy compared with placebo (patients with OAB): statistically significantly more effective
- efficacy compared with serlopitant at all efficacy end points (patients with OAB): numerically more effective

Source: patent US10617671B2, “Use of NK-1 receptor antagonist serlopitant in pruritus” (Menlo Therapeutics Inc., priority 2013, dated 2020)
